Where only a bound is given, the exact number is not on record here.

The target in this assay is Mitogen-activated protein kinase kinase kinase kinase 1 (Homo sapiens, UniProt Q92918). The experiment in a line: Inhibition of N-terminal GST-tagged full-length human HPK1 expressed in baculovirus infected Sf21 cells using MBP as substrate preincubated for 15 mins followed by substrate addition and measured after 120 mins in presence of ATP by ADP-glo assay.
Sequence of Mitogen-activated protein kinase kinase kinase kinase 1 (Q92918 whole entry): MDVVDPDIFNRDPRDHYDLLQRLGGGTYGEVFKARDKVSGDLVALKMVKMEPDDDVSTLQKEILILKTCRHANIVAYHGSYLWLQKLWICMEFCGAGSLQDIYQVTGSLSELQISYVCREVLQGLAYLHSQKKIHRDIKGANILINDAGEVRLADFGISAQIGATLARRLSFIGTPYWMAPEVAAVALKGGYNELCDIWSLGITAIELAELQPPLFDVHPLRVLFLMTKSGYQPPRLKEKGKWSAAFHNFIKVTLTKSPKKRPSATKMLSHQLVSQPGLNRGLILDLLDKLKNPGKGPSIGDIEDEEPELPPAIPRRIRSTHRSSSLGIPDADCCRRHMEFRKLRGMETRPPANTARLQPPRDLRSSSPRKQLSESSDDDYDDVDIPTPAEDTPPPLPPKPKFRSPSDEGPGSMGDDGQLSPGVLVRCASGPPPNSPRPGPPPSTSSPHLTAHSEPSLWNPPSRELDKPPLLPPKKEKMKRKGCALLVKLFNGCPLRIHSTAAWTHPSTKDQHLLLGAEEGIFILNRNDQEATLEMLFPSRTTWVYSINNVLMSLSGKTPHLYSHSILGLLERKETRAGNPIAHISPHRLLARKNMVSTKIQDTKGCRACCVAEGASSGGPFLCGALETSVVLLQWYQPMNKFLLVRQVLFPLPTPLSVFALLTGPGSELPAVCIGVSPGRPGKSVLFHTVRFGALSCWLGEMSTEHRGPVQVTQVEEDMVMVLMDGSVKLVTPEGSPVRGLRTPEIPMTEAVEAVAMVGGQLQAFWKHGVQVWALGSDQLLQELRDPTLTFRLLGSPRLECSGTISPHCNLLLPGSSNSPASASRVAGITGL

Take `CN1CCN(c2ccc(-c3cc(C(N)=O)c4ncnc(N[C@H]5CCCNC5)c4n3)cn2)CC1`: the IC50 was below 100 nM.

On to `COCCOc1ccc(-c2cc(C(N)=O)c3ncnc(N[C@H]4CCCNC4)c3n2)c(C#N)c1`, for which the IC50 is below 100 nM.

As for `NC(=O)c1cc(-c2ccc(F)cc2)nc2c(N[C@H]3CCCNC3)ncnc12`, the IC50 was below 100 nM.

Take `NC(=O)c1cc(-c2ccc(C3(O)CC3)cc2)nc2c(N[C@H]3CCCNC3)ncnc12`: the IC50 was below 100 nM.

With `COc1ccccc1-c1cc(C(N)=O)c2ncnc(N[C@H]3CCCNC3)c2n1`, the IC50 is below 100 nM.

`CS(=O)(=O)Cc1ccc(-c2cc(C(N)=O)c3ncnc(N[C@H]4CCCNC4)c3n2)cc1`: the IC50 is below 100 nM.
